Measurements: PMC5578959, “Selective LRRK2 kinase inhibition reduces phosphorylation of endogenous Rab10 and Rab12 in human peripheral mononuclear blood cells” (Scientific Reports, 2017)

Columns and labels:
Assay in all cases: KiNativ profiling in human PBMCs
Assay type in all cases: binding
PIP4K2C = test system: T1, PIP4K2C; conditions: ATP
T1 construct: purchased ActivX Technologies (KiNativ)
How it was run: (§1)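 Compound was applied to living PBMCs at 0.1 µM or 1 µM. Occupancy of kinases was then assessed by KiNativ.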

Erk5 = test system: T2, Erk5; conditions: Lys2
T2 construct: purchased ActivX Technologies (KiNativ)
How it was run: as §1

LRRK2 = test system: T3, LRRK2
T3 construct: purchased ActivX Technologies (KiNativ)
How it was run: as §1

ABL,ARG = test system: ABL,ARG
How it was run: as §1

MAP2K7 = test system: T4, MAP2K7; conditions: Lys2
T4 construct: purchased ActivX Technologies (KiNativ)
How it was run: as §1

RSK1 domain1 = test system: T5, RSK1 domain1
T5 construct: RSK1 domain1; purchased ActivX Technologies (KiNativ)
How it was run: as §1

MAP3K5 = test system: T6, MAP3K5; conditions: Lys2
T6 construct: purchased ActivX Technologies (KiNativ)
How it was run: as §1

MAP3K2,MAP3K3 = conditions: Lys2
How it was run: as §1

CaMK2g = test system: T7, CaMK2g; conditions: Lys1
T7 construct: purchased ActivX Technologies (KiNativ)
How it was run: as §1

NEK4 = test system: T8, NEK4; conditions: Lys2
T8 construct: purchased ActivX Technologies (KiNativ)
How it was run: as §1

PLK1 = test system: T9, PLK1; conditions: Lys1
T9 construct: purchased ActivX Technologies (KiNativ)
How it was run: as §1

NEK8 = test system: T10, NEK8; conditions: Lys2
T10 construct: purchased ActivX Technologies (KiNativ)
How it was run: as §1

ARAF = test system: T11, ARAF; conditions: Lys2
T11 construct: purchased ActivX Technologies (KiNativ)
How it was run: as §1

SGK3 = test system: T12, SGK3
T12 construct: purchased ActivX Technologies (KiNativ)
How it was run: as §1

FYN,SRC,YES = conditions: Activation Loop
How it was run: as §1

MLKL = test system: T13, MLKL; conditions: Lys1
T13 construct: purchased ActivX Technologies (KiNativ)
How it was run: as §1

IKKe = test system: T14, IKKe; conditions: Lys1
T14 construct: purchased ActivX Technologies (KiNativ)
How it was run: as §1

MAP2K1,MAP2K2 = conditions: Lys2
How it was run: as §1

CaMK2d = test system: T15, CaMK2d; conditions: Lys1
T15 construct: purchased ActivX Technologies (KiNativ)
How it was run: as §1

## Cn1cc(-c2c[nH]c3ncnc(N4CCOCC4)c23)cc1C#N [PFE-360]
PIP4K2C; 0.1µM, peptide TLVIKEVSSEDIADMHSNLSNYHQYIVK
  % Inhibition: -22.2%
PIP4K2C; 0.1µM, peptide VKELPTLKDMDFLNK
  % Inhibition: -16.7%
PIP4K2C; 1µM, peptide TLVIKEVSSEDIADMHSNLSNYHQYIVK
  % Inhibition: -14.4%
PIP4K2C; 1µM, peptide VKELPTLKDMDFLNK
  % Inhibition: -2.6%
Erk5; 0.1µM
  % Inhibition: 5%
Erk5; 1µM
  % Inhibition: 7.2%
LRRK2; 0.1µM, Lys1
  % Inhibition: >90%
LRRK2; 0.1µM, Lys2
  % Inhibition: 93.8%
  Inhibition: full inhibition
LRRK2; 1µM, Lys1
  % Inhibition: >90%
LRRK2; 1µM, Lys2
  % Inhibition: 96.7%
ABL,ARG; 0.1µM, Activation Loop
  % Inhibition: -15.2%
ABL,ARG; 0.1µM, Lys1
  % Inhibition: -22.4%
ABL,ARG; 1µM, Activation Loop
  % Inhibition: -0.3%
ABL,ARG; 1µM, Lys1
  % Inhibition: 1.3%
MAP2K7; 0.1µM
  % Inhibition: 7.5%
MAP2K7; 1µM
  % Inhibition: -1.1%
RSK1 domain1; 0.1µM, Activation Loop
  % Inhibition: 4.6%
RSK1 domain1; 0.1µM, Lys1
  % Inhibition: -11.3%
RSK1 domain1; 0.1µM, Lys2
  % Inhibition: -4.4%
RSK1 domain1; 1µM, Activation Loop
  % Inhibition: 1.1%
RSK1 domain1; 1µM, Lys1
  % Inhibition: 3.4%
RSK1 domain1; 1µM, Lys2
  % Inhibition: 10.9%
MAP3K5; 0.1µM
  % Inhibition: 44.3%
MAP3K5; 1µM
  % Inhibition: 60.3%
MAP3K2,MAP3K3; 0.1µM
  % Inhibition: -2.6%
MAP3K2,MAP3K3; 1µM
  % Inhibition: -12.9%
CaMK2g; 0.1µM
  % Inhibition: 11.1%
CaMK2g; 1µM
  % Inhibition: 9.2%
NEK4; 0.1µM
  % Inhibition: 9.8%
NEK4; 1µM
  % Inhibition: -8.3%
PLK1; 0.1µM
  % Inhibition: -4.1%
PLK1; 1µM
  % Inhibition: -6.7%
NEK8; 0.1µM
  % Inhibition: -1.8%
NEK8; 1µM
  % Inhibition: -12.1%
ARAF; 0.1µM
  % Inhibition: 7.6%
ARAF; 1µM
  % Inhibition: 2.5%
SGK3; 0.1µM, Lys1
  % Inhibition: 8.9%
SGK3; 0.1µM, Lys2
  % Inhibition: -21.8%
SGK3; 1µM, Lys1
  % Inhibition: 5.1%
SGK3; 1µM, Lys2
  % Inhibition: -10.5%
FYN,SRC,YES; 0.1µM
  % Inhibition: -0.7%
FYN,SRC,YES; 1µM
  % Inhibition: 8.2%
MLKL; 0.1µM
  % Inhibition: 2.3%
MLKL; 1µM
  % Inhibition: 5.2%
IKKe; 0.1µM
  % Inhibition: 2.3%
IKKe; 1µM
  % Inhibition: 7.7%
MAP2K1,MAP2K2; 0.1µM
  % Inhibition: 13.4%
MAP2K1,MAP2K2; 1µM
  % Inhibition: 12.9%
CaMK2d; 0.1µM
  % Inhibition: 0.1%
CaMK2d; 1µM
  % Inhibition: -3%
